Experimental data: patent publication US12473282B2, “Biphenyl fluorine double bond derivative, preparation method therefor, and pharmaceutical application thereof” (Abbisko Therapeutics Co., Ltd., priority 2020, dated 2025)

Key:
[1] = biological target: interaction between PD-1 and PD-L1 (Homo sapiens (Human), UniProt Q9NZQ7); assay: PD1-PDL1 HTRF binding activity test (Cisbio PD-1/PD-L1 binding assay kit)
Description: I. PD1-PDL1 HTRF Binding Activity Test
The effect of compounds of the examples of the present invention on the interaction between PD-1 and PD-L1 was determined by the PD-1/PD-L1 binding assay kit from Cisbio (#64ICP01PEG or 64ICP01PEH). The detailed experimental process was as follows: • 1. Pre-diluted compound solution, 4 μL of Tag1-PD-L1 and 4 μL of Tag2-PD1 were added to each well of a 384-well plate; • 2. After the mixture was incubated at room temperature for 15 min, 5 μL of anti-Tag1-Eu3+ antibody and 5 μL of anti-Tag2-XL665 antibody were then added; • 3. After incubated for 2 hrs at room temperature or overnight at 4° C., plates were read on Envision of Pelkin Elmer; and readings at 665 nm and 620 nm were recorded, and the ratio of the two readings was taken as a reading for each well; • 4. The reading of each well after compound treatment was compared with the reading of DMSO treated wells to obtain the percent inhibition of the compound; • 5. IC50 values of compounds and positive compounds of the examples of the present invention were determined by non-linear regression analysis of percent inhibition at different compound concentrations. II. Jurkat Reporter Gene Cellular Assay

[2] = Jurkat reporter gene cellular assay; assay type: cell-based; conditions: Homo sapiens; Jurkat/NF-κB-luc/PD1 + Raji-PD-L1 coculture, OKT3 1 μg/mL, 6 hrs, activation fold; read-out: Cell Activity EC50
Method in brief: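 Jurkat cells stably expressing human PD-1 and NF-κB-luciferase co-cultured with PD-L1-expressing Raji cells (5×10^4 each/well) under OKT3 (1 μg/mL final) with compound. Raji cells preincubated 20 min; luminescence read 6 h after Jurkat addition. EC50 from non-linear regression of fold activation over DMSO.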

[3] = Pharmacokinetic assay in mice; assay type: in vivo; conditions: male, mouse; ICR mice, PO 10 mg/kg, plasma, original compound detected
Description: III. Pharmacokinetic Assay in Mice
The purpose of this study was to study the pharmacokinetic behaviors of some compounds of the present invention, and administration routes were: per oral administration (PO) to ICR mice at a dose of 10 mg/kg.
The compounds used in this test came from the compounds of the specific examples of the present invention.
ICR mice, male, N=3, with the original source of Shanghai Sippr-BK Laboratory Animal Co. Ltd.
2.3 Preparation and Administration of Drug
The compounds were weighed, and dissolved in a solvent of 0.5% SDS+0.5% CMCNa. The mixture solutions were mixed well by shaking and ultrasonic treatment to obtain colorless clear solutions. The solutions were orally administered to nine mice after an overnight fast. The dosage of administration was 10 mg/kg.
1) With about 90 μL/time point, blood was drawn from the submaxillary vein, and heparin sodium was added for anticoagulation. The blood samples were placed onto the ice, and were centrifuged (centrifugation conditions: 8000 r/min, 6 min, 2-8° C.) within 1 hr to obtain plasmas.
2) The time points for blood sampling were at 0 hr, 0.25 hr, 0.5 hr, 1 hr, 2 hrs, 4 hrs, 6 hrs, 8 hrs and 24 hrs after administration. The samples were stored in a refrigerator at −20° C.
3) 40 μL of plasma sample was added to 160 μL of cold acetonitrile containing an internal standard, and the mixture solution was vortexed for 3 min and centrifuged at 11,000 r/min for 5 min.
4) 100 μL of supernate was taken and added to 100 μL of water, and 5 μL of the sample was taken and analyzed by LC/MS/MS.
Only the original compounds were analyzed for the compounds from the examples of the present invention and the reference compound from Example 158 of WO2020011209A1; and both the original compounds and possible products of ester hydrolysis, namely Example 217, were analyzed for the reference compound from Example 216 of WO2020011209A1.

Chain of interaction between PD-1 and PD-L1 (Q9NZQ7 19-238): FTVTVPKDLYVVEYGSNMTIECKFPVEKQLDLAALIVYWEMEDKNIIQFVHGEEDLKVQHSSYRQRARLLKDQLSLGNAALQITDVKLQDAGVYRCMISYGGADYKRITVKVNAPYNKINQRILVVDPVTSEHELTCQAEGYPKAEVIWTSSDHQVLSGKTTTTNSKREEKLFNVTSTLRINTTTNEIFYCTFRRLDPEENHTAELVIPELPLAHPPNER

| SMILES | IC50 [1] [nM] | EC50 [2] [nM] | AUC(0-t) [3] [ng·h/mL] | Cmax [3] [ng/mL] | MRT [3] [h] | Tmax [3] [h] | half-life [3] [h] |
| --- | --- | --- | --- | --- | --- | --- | --- |
| Cc1c(/C=C(\F)c2nc3c(n2C)CCN(C(C)C)C3)cccc1-c1cccc(NC(=O)c2nc3c(n2C)CCN(CCC24CCC(C(=O)O)(CC2)C4)C3)c1C [Example 1, (Z)-4-(2-(2-((3′-(2-fluoro-2-(5-isopropyl-1-methyl-4,5,6,7-tetrahydro-1H-imidazo[4,5-c]pyridin-2-yl)vinyl)-2,2′-dimethyl-[1,1′-biphenyl]-3-yl)carbamoyl)-1-methyl-1,4,6,7-tetrahydro-5H-imidazo[4,5-c]pyridin-5-yl)ethyl)bicyclo[2.2.1]heptane-1-carboxylic acid] | 0.688 | 258 | 2490 | 323 | 8.3 | 4 | 5.2 |
| COc1cc(/C(F)=C/c2cccc(-c3cccc(NC(=O)c4nc5c(n4C)CCN(CCC46CCC(C(=O)O)(CC4)C6)C5)c3Cl)c2Cl)ncc1CN1CC[C@@H](C(=O)O)C1 [Example 73, (R,Z)-1-((6-(2-(3′-(5-(2-(4-carboxybicyclo[2.2.1]heptan-1-yl)ethyl)-1-methyl-4,5,6,7-tetrahydro-1H-imidazo[4,5-c]pyridine-2-carboxamido)-2,2′-dichloro-[1,1′-biphenyl]-3-yl)-1-fluorovinyl)-4-methoxypyridin-3-yl)methyl)pyrrolidine-3-carboxylic acid] | 0.186 | 50.6 | 590 | 442 | 2 | 0.5 | 1.1 |
| COc1cc(/C(F)=C/c2cccc(-c3cccc(NC(=O)c4nc5c(n4C)CCN(CCC46CCC(C(=O)O)(CC4)C6)C5)c3Cl)c2Cl)ncc1CN[C@@H]1CCOC[C@H]1O [Example 35, 4-(2-(2-((2,2′-dichloro-3′-((Z)-2-fluoro-2-(5-((((3S,4R)-3-hydroxytetrahydro-2H-pyran-4-yl)amino)methyl)-4-methoxypyridin-2-yl)vinyl)-[1,1′-biphenyl]-3-yl)carbamoyl)-1-methyl-1,4,6,7-tetrahydro-5H-imidazo[4,5-c]pyridin-5-yl)ethyl)bicyclo[2.2.1]heptane-1-carboxylic acid] | 0.638 | 93.1 |  |  |  |  |  |
| C[C@@H](O)CN1CCc2c(nc(/C(F)=C/c3cccc(-c4cccc(NC(=O)c5nc6c(n5C)CCN(CCC57CCC(C(=O)O)(CC5)C7)C6)c4Cl)c3Cl)n2C)C1 [Example 7, (R,Z)-4-(2-(2-((2,2′-dichloro-3′-(2-fluoro-2-(5-(2-hydroxypropyl)-1-methyl-4,5,6,7-tetrahydro-1H-imidazo[4,5-c]pyridin-2-yl)vinyl)-[1,1′-biphenyl]-3-yl)carbamoyl)-1-methyl-1,4,6,7-tetrahydro-5H-imidazo[4,5-c]pyridin-5-yl)ethyl)bicyclo[2.2.1]heptane-1-carboxylic acid] | 0.419 | 62.2 |  |  |  |  |  |
| COc1cc(/C(F)=C/c2cccc(-c3cccc(NC(=O)c4nc5c(n4C)CCN(CCC46CCC(C(=O)O)(CC4)C6)C5)c3Cl)c2Cl)ncc1CNC(C)C [Example 41, (Z)-4-(2-(2-((2,2′-dichloro-3′-(2-fluoro-2-(5-((isopropylamino)methyl)-4-methoxypyridin-2-yl)vinyl)-[1,1′-biphenyl]-3-yl)carbamoyl)-l-methyl-1,4,6,7-tetrahydro-5H-imidazo[4,5-c]pyridin-5-yl)ethyl) bicyclo[2.2.1]heptane-1-carboxylic acid] | 0.249 | 86.7 |  |  |  |  |  |
| COc1cc(/C(F)=C/c2cccc(-c3cccc(NC(=O)c4nc5c(n4C)CCN(CCC46CCC(C(=O)O)(CC4)C6)C5)c3Cl)c2Cl)ncc1CN[C@H]1CC[C@@H](O)CC1 [Example 40, 4-(2-(2-((2,2′-dichloro-3′-((Z)-2-fluoro-2-(5-((((1S,4S)-4-hydroxycyclohexyl)amino)methyl)-4-methoxypyridin-2-yl)vinyl)-[1,1′-biphenyl]-3-yl)carbamoyl)-1-methyl-1,4,6,7-tetrahydro-5H-imidazo[4,5-c]pyridin-5-yl)ethyl)bicyclo[2.2.1]heptane-1-carboxylic acid] | 0.31 | 179 |  |  |  |  |  |
| CC(C)N1CCc2c(nc(/C(F)=C/c3cccc(-c4cccc(NC(=O)c5nc6c(n5C)CCN(CCC57CCC(C(=O)O)(CC5)C7)C6)c4Cl)c3Cl)n2C)C1 [Example 8, (Z)-4-(2-(2-((2,2′-dichloro-3′-(2-fluoro-2-(5-isopropyl-1-methyl-4,5,6,7-tetrahydro-1H-imidazo[4,5-c]pyridin-2-yl)vinyl)-[1,1′-biphenyl]-3-yl)carbamoyl)-1-methyl-1,4,6,7-tetrahydro-5H-imidazo[4,5-c]pyridin-5-yl)ethyl)bicyclo[2.2.1]heptane-1-carboxylic acid] | 0.516 | 97.5 |  |  |  |  |  |
| COc1cc(/C(F)=C/c2cccc(-c3cccc(NC(=O)c4nc5c(n4C)CCN(CCC46CCC(C(=O)O)(CC4)C6)C5)c3Cl)c2Cl)ncc1CN1CC(C)(O)C1 [Example 33, (Z)-4-(2-(2-((2,2′-dichloro-3′-(2-fluoro-2-(5-((3-hydroxy-3-methylazetidin-1-yl)methyl)-4-methoxypyridin-2-yl)vinyl)-[1,1′-biphenyl]-3-yl)carbamoyl)-1-methyl-1,4,6,7-tetrahydro-5H-imidazo[4,5-c]pyridin-5-yl)ethyl)bicyclo[2.2.1]heptane-1-carboxylic acid] | 0.489 | 85.8 |  |  |  |  |  |
| COc1cc(/C(F)=C/c2cccc(-c3cccc(NC(=O)c4nc5c(n4C)CCN(CCC46CCC(C(=O)O)(CC4)C6)C5)c3Cl)c2Cl)ncc1CN[C@H](CO)C(=O)O [Example 37, (R,Z)-4-(2-(2-((3′-(2-(5-(((1-carboxy-2-hydroxyethyl)amino)methyl)-4-methoxypyridin-2-yl)-2-fluorovinyl)-2,2′-dichloro-[1,1′-biphenyl]-3-yl)carbamoyl)-1-methyl-1,4,6,7-tetrahydro-5H-imidazo[4,5-c]pyridin-5-yl)ethyl)bicyclo[2.2.1]heptane-1-carboxylic acid] | 0.202 | 178 |  |  |  |  |  |
| COc1cc(/C(F)=C/c2cccc(-c3cccc(NC(=O)c4nc5c(n4C)CCN(CCC46CCC(C(=O)O)(CC4)C6)C5)c3Cl)c2Cl)ncc1CNCC(F)F [Example 38, (Z)-4-(2-(2-((2,2′-dichloro-3′-(2-(5-(((2,2-difluoroethyl)amino)methyl)-4-methoxypyridin-2-yl)-2-fluorovinyl)-[1,1′-biphenyl]-3-yl)carbamoyl)-1-methyl-1,4,6,7-tetrahydro-5H-imidazo[4,5-c]pyridin-5-yl)ethyl)bicyclo[2.2.1]heptane-1-carboxylic acid] | 0.332 | 977 |  |  |  |  |  |
| COc1cc(/C(F)=C/c2cccc(-c3cccc(NC(=O)c4nc5c(n4C)CCN(CCC46CCC(C(=O)O)(CC4)C6)C5)c3Cl)c2Cl)ncc1CNC[C@@H]1CCC(=O)N1 [Example 34, (S,Z)-4-(2-(2-((2,2′-dichloro-3′-(2-fluoro-2-(4-methoxy-5-((((5-oxopyrrolidin-2-yl)methyl)amino)methyl)pyridin-2-yl)vinyl)-[1,1′-biphenyl]-3-yl)carbamoyl)-1-methyl-1,4,6,7-tetrahydro-5H-imidazo [4,5-c]pyridin-5-yl)ethyl)bicyclo[2.2.1]heptane-1-carboxylic acid] | 0.352 | 80.4 |  |  |  |  |  |
| COc1cc(/C(F)=C/c2cccc(-c3cccc(NC(=O)c4nc5c(n4C)CCN(C[C@H]4CC[C@H](C(=O)O)CC4)C5)c3C)c2C)ncc1CNC[C@@H]1CCC(=O)N1 [Example 17, (1R,4R)-4-((2-((3′-((Z)-2-fluoro-2-(4-methoxy-5-(((((S)-5-oxopyrrolidin-2-yl)methyl)amino)methyl)pyridin-2-yl)vinyl)-2,2′-dimethyl-[1,1′-biphenyl]-3-yl)carbamoyl)-1-methyl-1,4,6,7-tetrahydro-5H-imidazo[4,5-c]pyridin-5-yl)methyl)cyclohexane-1-carboxylic acid] | 0.331 | 464 |  |  |  |  |  |
